Like-named read-outs stand apart in the source and are kept apart here.
Tests used:
[1] = target: T1, human delta subtype 2 opioid receptor (Homo sapiens, UniProt P41143); assay: Human Delta Opioid Receptor Binding Assay (CHO membranes, 3H-Naltrindole); conditions: read-out: hKi δ
T1 construct: purchased Perkin Elmer RBHODM400UA; host or cells: Chinese Hamster Ovary cells (recombinant expression)
Description: This assay is designed to test the ability of a compound to interfere with the binding of tritiated Naltrindole to the human delta subtype 2 opioid receptor. Membranes from Chinese Hamster Ovary cells expressing the human delta subtype 2 opioid receptor (Perkin Elmer #RBHODM400UA) are homogenized in assay buffer (50 mM Tris, pH 7.5 with 5 mM MgCl2) using a glass tissue grinder, Teflon pestle and a Steadfast Stirrer (Fisher Scientific). The concentration of membranes is adjusted to 100 μg/mL in assay buffer and 100 μL is dispensed into each well of the assay plate, a 96 well round bottom polypropylene plate. Compounds to be tested are solubilized in DMSO (Pierce), 10 mM, then diluted in assay buffer to 6× the desired final concentration. The ligand, ^3H-Naltrindole (Perkin Elmer #NET-1065) is also diluted in assay buffer to 6 nM. In a second 96 well round bottom polypropylene plate, known as the premix plate, 60 μL of the 6× compound is combined with 60 μL of 6 nM ^3H-Naltrindole. From this premix plate 50 μL is transferred to the assay plate containing the membranes, in duplicate. The assay plate is incubated for 30 min at room temperature. A GF/C 96 well filter plate (Perkin Elmer #6005174) is pretreated with 0.3% polyethylenimine for 30 min. The contents of the assay plate are filtered through the filter plate using a Packard Filtermate Harvester, and washed 3 times with 0.9% saline that is 4° C. The filter plate is dried, the underside sealed, and 30 μL Microscint20 (Packard #6013621) added to each well. A Topcount-NXT Microplate Scintillation Counter (Packard) is used to measure emitted energies in the range of 2.9 to 35 KeV. Results are compared to maximum binding, wells receiving no inhibitors. Nonspecific binding is determined in the presence of 1 μM unlabelled Naltrindole (Sigma #N115).

[2] = test system: novel environment-stressed mice; assay: In Vivo Assay-Stress-Induced Fecal Output (Fecal Output for 1 hr); set-up: species or system mouse; conditions: 30 mg/kg oral, 1 hr; for response vs control in vivo at 30 mg/kg: Mus musculus, po, 1 h
Excerpt: This assay evaluates the fecal output in novel environment-stressed mice to that of acclimated controls.
Methods: Adult, male, Crl:CD-1(ICR) mice, weighing ˜30-35 g were used in these studies, with a minimum of 10 mice per dose group. One group of mice was assigned as acclimated, or “non-stressed” controls. These control mice were transported from colony housing, where they were housed 3/cage in polycarbonate cages with access to food and water ad lib. to the procedure room. The mice were removed from their home cages and individually housed in 20 cm wide×20 cm deep×15 cm tall cages, equipped with a wire mesh bottom where they remained for a 16-18 hr period of acclimation to their novel environment. Mice were allowed access to food and water ad lib. during acclimation. The other groups of mice were assigned as non-acclimated, or “stressed” treatment groups. Each mouse in each group was weighed and vehicle, or test compound, was intragastrically administered by oral intubation in 0.5% methylcellulose. Mice were allowed access to water only ad lib. during the test period. After compound administrations, acclimated (control) as well as non-acclimated (stressed) mice were individually housed in a 20 cm wide×20 cm deep×15 cm tall cage, with a wire mesh bottom. An absorbant cardboard is placed beneath the cages. The number of fecal pellets excreted by each mouse was determined at hourly intervals following placement of the mice in the individual cages. Raw Data=# of fecal pellets/mouse/hr. […]

human mu opioid receptor = target: T2, human mu opioid receptor (Homo sapiens, UniProt P35372); assay: Human Mu Opioid Receptor Binding Assay (CHO membranes, 3H-Damgo); conditions: read-out: hKi μ
T2 construct: purchased Perkin Elmer RBHOMM400UA; host or cells: Chinese Hamster Ovary cells (recombinant expression)
Description: Membranes from Chinese Hamster Ovary cells expressing the human […] opioid receptor (Perkin Elmer #RBHOMM400UA) are homogenized in assay buffer (50 mM Tris, pH 7.5 with 5 mM MgCl2) using a glass tissue grinder, Teflon pestle and a Steadfast Stirrer (Fisher Scientific). The concentration of membranes is adjusted to 300 μg/mL in assay buffer and 100 μL is dispensed into each well of the assay plate, a 96 well round bottom polypropylene plate. Compounds to be tested are solubilized in DMSO (Pierce), 10 mM, then diluted in assay buffer to 6× the desired final concentration. The ligand, ^3H-Damgo (Perkin Elmer #NET-902) is also diluted in assay buffer to 3.6 nM. In a second 96 well round bottom polypropylene plate, known as the premix plate, 60 μL of the 6× compound is combined with 60 μL of 3.6 nM ^3H-Damgo. From this premix plate 50 μL is transferred to the assay plate containing the membranes, in duplicate. The assay plate is incubated for 2 h at room temperature. A GF/C 96 well filter plate (Perkin Elmer #6005174) is pretreated with 0.3% polyethylenimine for 30 min. The contents of the assay plate are filtered through the filter plate using a Packard Filtermate Harvester, and washed 3 times with 0.9% saline that is 4° C. The filter plate is dried, the underside sealed, and 30 μL Microscint20 (Packard #6013621) added to each well. A Topcount-NXT Microplate Scintillation Counter (Packard) is used to measure emitted energies in the range of 2.9 to 35 KeV. […] Nonspecific binding is determined in the presence of 1 μM unlabelled Damgo (Tocris #1171).

T2 sequence (P35372 whole entry): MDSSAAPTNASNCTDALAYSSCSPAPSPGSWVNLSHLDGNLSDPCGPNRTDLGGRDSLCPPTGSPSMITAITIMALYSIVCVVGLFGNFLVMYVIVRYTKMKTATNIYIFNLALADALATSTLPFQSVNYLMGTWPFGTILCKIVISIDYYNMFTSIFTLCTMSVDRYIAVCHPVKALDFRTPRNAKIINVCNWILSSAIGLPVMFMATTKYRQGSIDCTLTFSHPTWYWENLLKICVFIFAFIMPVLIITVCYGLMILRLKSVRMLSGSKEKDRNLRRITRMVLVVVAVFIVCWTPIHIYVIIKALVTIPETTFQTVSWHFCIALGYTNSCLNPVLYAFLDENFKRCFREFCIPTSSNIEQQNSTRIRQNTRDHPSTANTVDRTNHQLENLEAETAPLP
T1 sequence (P41143 whole entry): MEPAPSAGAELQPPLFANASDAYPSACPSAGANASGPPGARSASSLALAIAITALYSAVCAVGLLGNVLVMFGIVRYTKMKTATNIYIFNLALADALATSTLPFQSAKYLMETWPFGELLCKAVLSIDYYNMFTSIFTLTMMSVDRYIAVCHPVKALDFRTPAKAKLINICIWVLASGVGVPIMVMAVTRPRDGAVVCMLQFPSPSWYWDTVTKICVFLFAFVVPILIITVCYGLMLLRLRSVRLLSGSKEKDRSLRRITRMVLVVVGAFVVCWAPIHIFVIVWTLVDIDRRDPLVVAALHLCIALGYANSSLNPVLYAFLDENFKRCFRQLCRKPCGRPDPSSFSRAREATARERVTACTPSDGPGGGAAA

Compound	Ki [1]	Fecal Output (# pellets) cpd ([2]; novel environment-stressed mice)	response vs control in vivo at 30 mg/kg ([2]; relative to acclimated control, read-out: Fecal Output cpd % control)	response vs control in vivo at 30 mg/kg ([2]; relative to novel environment stress (NES) vehicle group, read-out: Fecal Output cpd % NES)	Ki (human mu opioid receptor)
Cc1cc(C(N)=O)cc(C)c1C[C@H](N)C(=O)N(Cc1ccccc1)Cc1nc(-c2ccccc2)c[nH]1 [Cpd 107]	584 nM	13.1 pellets	230%	87.3%	2.95 nM
CC(C)N(C(=O)[C@@H](N)Cc1cccc(C#N)c1)[C@@H](Cc1ccccc1)c1nc(-c2ccccc2)c[nH]1 [Cpd 157]	> 10000 nM				2.2 nM
Cc1cc(O)cc(C)c1C[C@H](N)C(=O)N[C@@H](CO)c1nc(-c2ccccc2)c[nH]1 [Cpd 119]	> 10000 nM				185 nM
Cc1cc(O)cc(C)c1C[C@H](N)C(=O)N(C(C)C)[C@@H](Cc1ccccc1)c1nc(-c2ccccc2)c[nH]1 [Cpd 159]	400 nM				8.6 nM
CC(=O)Oc1ccc(CN(C(=O)[C@@H](N)Cc2c(C)cc(O)cc2C)[C@@H](C)c2nc(-c3ccccc3)c[nH]2)cc1 [Cpd 88]	16.2 nM				5.8 nM
CC(C)[C@@H](c1nc(-c2ccccc2)c[nH]1)N(C(=O)[C@@H](N)Cc1cccc(C#N)c1)C(C)C [Cpd 160]	> 10000 nM				> 1000 nM
Cc1cc(O)cc(C)c1C[C@H](N)C(=O)N(C(C)C)[C@H](C)c1nc(-c2ccc(F)cc2)c[nH]1 [Cpd 82]	46 nM				2.39 nM
Cc1cc(O)cc(C)c1C[C@H](N)C(=O)N(Cc1ccco1)[C@@H](C)c1nc(-c2ccccc2)c[nH]1 [Cpd 54]	172 nM				1.1 nM
Cc1cc(O)cc(C)c1C[C@H](N)C(=O)N(Cc1nc(-c2cccc(C(N)=O)c2)c(C)[nH]1)C(C)C [Cpd 73]	151 nM				1.9 nM
Cc1cc(O)cc(C)c1C[C@H](N)C(=O)N(Cc1nc(-c2cccc(O)c2)c(C)[nH]1)C(C)C [Cpd 68]	59 nM				0.6 nM
Cc1cc(O)cc(C)c1CC(N)C(=O)Oc1cc(C)c(C[C@H](N)C(=O)N(C(C)C)[C@@H](CC(C)C)c2nc(-c3ccccc3)c[nH]2)c(C)c1 (stereo partly drawn) [Cpd 139]	1260 nM				58 nM
Cc1cc(O)cc(C)c1C[C@H](N)C(=O)N(Cc1nc(-c2ccc(-c3ccccc3)cc2)c(C)[nH]1)C(C)C [Cpd 115]	321 nM				68 nM
COC(=O)c1cccc(CN(C(=O)[C@@H](N)Cc2c(C)cc(O)cc2C)[C@@H](C)c2nc(-c3ccccc3)c[nH]2)c1 [Cpd 52]	66 nM				12.1 nM
Cc1cc(O)cc(C)c1C[C@H](N)C(=O)N(C(C)C)[C@H](c1nc(-c2ccccc2)c[nH]1)C(C)C [Cpd 162]	173 nM				7.6 nM
Cc1cc(O)cc(C)c1C[C@H](N)C(=O)N(Cc1ccc(O)cc1)[C@@H](C)c1nc(-c2ccccc2)c[nH]1 [Cpd 81]	15.7 nM				1.7 nM
Cc1cc(C(N)=O)cc(C)c1C[C@H](N)C(=O)N(C1CCCCC1)[C@@H](C)c1nc(-c2ccccc2)c[nH]1 [Cpd 127]	710 nM				47 nM
Cc1cc(O)cc(C)c1C[C@H](N)C(=O)N(Cc1nc(-c2cccc(S(C)(=O)=O)c2)c(C)[nH]1)C(C)C [Cpd 72]	71 nM				1.03 nM
Cc1cc(O)cc(C)c1C[C@H](N)C(=O)N(Cc1nc(-c2ccc(N(C)C)cc2)c(C)[nH]1)C(C)C [Cpd 66]	550 nM				6.5 nM
